Holding throughout (experiment): relative viability (nuclei count vs DMSO), 5 days (fraction); higher = more cells survive
Compound in assay [1]: C1CC(C1)(C(=O)O)C(=O)O.[NH2-].[NH2-].[Pt+2] [Carboplatin] + CC(=O)c1c(C)c2cnc(Nc3ccc(N4CCNCC4)cn3)nc2n(C2CCCC2)c1=O [Palbociclib] (partner 0.5 µM)
Put shortly: (§1)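 Five library-drug doses in √10 steps were combined with a fixed anchor-drug dose, or a single drug was given alone, by pin tool to lung cancer cell lines in 1536-well plates the day after seeding. Nuclei were stained and counted after 5 days. Relative viability is the nuclei count in treated wells over that in vehicle wells, taken as the median of duplicate plates.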

Compound in the assay “GSK126 + Decitabine”: CC[C@H](C)N1C=C(C2=C(C=C(C=C21)C3=CN=C(C=C3)N4CCNCC4)C(=O)NCC5=C(C=C(NC5=O)C)C)C [GSK126] + Nc1ncn([C@H]2C[C@H](O)[C@@H](CO)O2)c(=O)n1 [Decitabine] (partner 2 µM)
In a few lines:
as §1

Compound in the assay “MLN4924 + Pictilisib”: NS(=O)(=O)OC[C@@H]1C[C@@H](n2ccc3c(N[C@H]4CCc5ccccc54)ncnc32)C[C@@H]1O [MLN4924] + CS(=O)(=O)N1CCN(Cc2cc3nc(-c4cccc5[nH]ncc45)nc(N4CCOCC4)c3s2)CC1 [Pictilisib] (partner 1 µM)
Put shortly: as §1

Compound in the assay “MLN4924 + Vorinostat”: NS(=O)(=O)OC[C@@H]1C[C@@H](n2ccc3c(N[C@H]4CCc5ccccc54)ncnc32)C[C@@H]1O [MLN4924] + O=C(CCCCCCC(=O)Nc1ccccc1)NO [Vorinostat] (partner 1 µM)
In a few lines: as §1

As for UMC-11, the relative viability in assay [1] (first compound 0.08 µM) worked out at 0.314; in assay [1] (first compound 0.253 µM), 0.348; in assay [1] (first compound 0.8 µM) it was 0.275; in assay [1] (first compound 2.53 µM) it was 0.301; in assay [1] (first compound 8 µM), 0.339; in the assay with GSK126 + Decitabine (first compound 0.08 µM), 0.695. In addition, the relative viability was determined as 0.557 with GSK126 + Decitabine (first compound 0.253 µM); 0.626 in the assay with GSK126 + Decitabine (first compound 0.8 µM); 0.604 with GSK126 + Decitabine (first compound 2.53 µM); 0.658 with GSK126 + Decitabine (first compound 8 µM); 0.593 with MLN4924 + Pictilisib (first compound 0.04 µM); 0.357 in the assay with MLN4924 + Pictilisib (first compound 0.1265 µM). Moreover, the relative viability with MLN4924 + Pictilisib (first compound 0.4 µM) was 0.267; with MLN4924 + Pictilisib (first compound 1.265 µM), 0.14; with MLN4924 + Pictilisib (first compound 4 µM), 0.14; with MLN4924 + Vorinostat (first compound 0.04 µM) it was 0.173; with MLN4924 + Vorinostat (first compound 0.1265 µM) it was 0.169; in the assay with MLN4924 + Vorinostat (first compound 0.4 µM) it was 0.19. The relative viability worked out at 0.144 with MLN4924 + Vorinostat (first compound 1.265 µM) and 0.116 in the assay with MLN4924 + Vorinostat (first compound 4 µM).

Source of the values: the supplement of paper PMC10307832.
